Measurements: patent US10653693B2, “PRMT5 inhibitors and uses thereof” (Epizyme, Inc., priority 2014, dated 2020)
Read-outs that look alike come from different tables or passages of the source.

Assays:
Maver-1 = assay: Long-term proliferation (LTP) assay; format: cell-based; conditions: Homo sapiens
Mino = assay: Long-term proliferation (LTP) assay; format: cell-based; conditions: Homo sapiens
Maver-1 xenograft model = assay: 21 day mantle cell lymphoma xenograft study: TGI and tumor methyl mark; format: in vivo; conditions: all doses tested, day 21
Protocol: Data presented in this example were determined after analysis of 21 day samples of mantle cell lymphoma tumors. Cmin PK samples were taken prior to the last dose on day 21. Tumors were excised, weighed and processed for methyl mark. Methyl mark reduction was measured in tumor samples and is shown as percent of vehicle control (POC). Both SYM11 and sDMA Elisa were used to measure methyl mark and the data shown is averaged from 10 animals. Tumor growth inhibition was determined using tumor volume reduction at day 21 expressed as a percent of POC. In vivo inhibition curves were also generated and IC50 values determined. Plasma levels from each group are averaged from 5 animals. […] The average body weight loss (BWL) in all groups was <6%. All doses tested show >50% TGI. […] The average BWL in all groups was <4%. The average BWL in all groups was <8%, except in the 100 mg/kg does group were 4 animals exceeded BWL of 15%.

[1] = test system: p53 expression in Z138 cells; assay: p53 and p21 expression analysis (Western); format: cell-based, Human; conditions: Z138 mantle cell lymphoma cells
Protocol: Z138 cells were seeded at approximately 3×10^6 cells/dish in 10 cm tissue culture dishes in a volume of 10 mL IMDM+10% horse serum media. Cells were treated with 1 μM of Formula C for 1, 2, 3, 4, or 5 days. Cell pellets were collected by centrifuging at 500×g for 5 minutes, washing once with PBS, and freezing at −80° C. until ready to be processed.
Protein lysates were prepared by adding RIPA buffer (Sigma R0278) containing protease inhibitor (about 5× the volume of the cell pellet, or roughly 250 μL) to each cell pellet and pipetting to resuspend. Samples were sonicated with 10×1 second pulses then centrifuged at maximum speed (13,300 RPM) for 6 minutes. 200 μL of supernatant was transferred to a fresh Eppendorf tube, and pellets were discarded. Protein concentration was determined using a Pierce BCA Protein Assay kit.
Protein gel samples were prepared by combining 20 μg of lysate with appropriate volumes of Life Technologies NuPage Sample Reducing Agent, LDS Sample Buffer, and RIPA buffer. Gel samples were heated for 5-10 minutes at 100° C. in a heat block. A 15-well Invitrogen 4-12% Bis-Tris NuPAGE-SDS gel was loaded with a volume of 19 μL per well, and run in MES SDS buffer at 150V for about 1 hour or until maximal separation of bands was achieved.
Gels were transferred onto nitrocellulose membranes using an Invitrogen iBlot system. […]

[2] = test system: Z-138 cells overexpressing full length (FL) MDM4; assay: Cell cycle analysis of transduced Z138 cell lines; format: cell-based, Human; conditions: 50 nM or 500 nM; 2, 3, or 4 days
Protocol: 1×10^6 Z138 cells were seeded in a 6-well tissue culture dish in a volume of 3 mL IMDM+10% horse serum per well. Lentiviruses (MDM4 or EGFP in pLEX vector) were prepared as previously described or purchased from Santa Cruz Biotechnology (cat. # sc-29435-V and sc-108080 for p53 shRNA or scrambled shRNA lentiviruses, respectively). Lentiviral particles were added to seeded cells at […] and supplemented with polybrene at 8 μg/mL. 6-well plates were sealed with Parafilm and spun at 1000×g for 90 minutes at 37° C. for lentiviral treatment. The contents of each well were then collected into separate 15 mL conical tubes and spun at 1000×g for 5 minutes. Supernatant (containing lentivirus and polybrene) was discarded and the cell pellet was resuspended in 3 mL of IMDM+10% horse serum. […]
Transduction efficiency was evaluated for EGFP-transduced cells using fluorescence microscopy. […]
Cells were seeded at 250,000 cells/well in 6-well tissue culture dishes in a volume of 3 mL IMDM+10% horse serum (supplemented with 0.5 μg/mL puromycin for transduced cell lines). […] Pellets were frozen at −80° C. until ready to process. […]
Samples were processed by FACS on a Becton Dickinson FACSCalibur machine. The percentage of cells in each cell cycle stage was determined using the cell cycle function on the gated single cell population with FlowJo V10 software.

| SMILES | IC50 (Maver-1; Maver1, 264 h, 11-day treatment, N = 1, read-out: Formula B LTP IC50) | IC90 (Maver-1; Maver1, 264 h, 11-day treatment, N = 1, read-out: Formula B LTP IC90) | IC50 (Maver-1; Maver1, Table 3, read-out: LTP IC50) | IC50 (Mino; 264 h, 11-day treatment, N = 1, read-out: Formula B LTP IC50) | IC90 (Mino; 264 h, 11-day treatment, N = 1, read-out: Formula B LTP IC90) | IC50 (Mino; Table 3, read-out: LTP IC50) | Tumor growth inhibition (TGI) (Maver-1 xenograft model) | p53 expression [1] | sensitivity of cells overexpressing full length (FL) MDM4 to PRMT5 inhibition [2] |
| --- | --- | --- | --- | --- | --- | --- | --- | --- | --- |
| CC(=O)N1CCC(Nc2cc(C(=O)NC[C@H](O)CN3CCc4ccccc4C3)ccn2)CC1 [Formula B] | 0.026 µM | 0.073 µM | 0.0153 µM | 0.119 µM | 0.611 µM | 0.0646 µM | > 50% |  |  |
| O=C(NC[C@H](O)CN1CCc2ccccc2C1)c1ccnc(NC2CCC2)c1 [Formula C] |  |  |  |  |  |  |  | increases | less sensitive |
